# Assay results as given in article PMC10788917 (Journal of Medicinal Chemistry, 2023).
# Substitutions are numbered along the chain they refer to.
# Legend:
# Assay in all cases: HDAC8 mutant biochemical assay
# [1] = biological target: T1, HDAC8 Cys102Ser/Cys153Ser (Homo sapiens, UniProt Q9BY41, C102S/C153S); settings: read-out: IC50 [μM] @ 100 nM HDAC8: A Cys102Ser/Cys153Ser, 1 h preincubation
# T1 construct: made in house
# T1 sequence (Q9BY41 1-377 C102S/C153S): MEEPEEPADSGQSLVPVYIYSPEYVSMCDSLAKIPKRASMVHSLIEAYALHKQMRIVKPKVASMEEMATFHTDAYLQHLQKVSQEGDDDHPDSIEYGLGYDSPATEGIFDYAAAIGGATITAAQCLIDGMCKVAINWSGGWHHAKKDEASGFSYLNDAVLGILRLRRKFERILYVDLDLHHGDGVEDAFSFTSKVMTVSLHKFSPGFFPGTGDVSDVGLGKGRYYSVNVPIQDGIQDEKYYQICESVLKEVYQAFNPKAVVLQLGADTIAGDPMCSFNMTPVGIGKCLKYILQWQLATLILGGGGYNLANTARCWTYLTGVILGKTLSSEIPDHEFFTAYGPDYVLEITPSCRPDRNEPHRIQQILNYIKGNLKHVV
# Protocol: (§1) HDAC8 mutant variants were generated, produced, and further purified as described previously.[32] Cysteines 28 and 314 were exchanged with serine using the following primer pairs: HD8_C28S_for, […]; HD8_C28S_rev, […]; HD8_C314S_for, […]; HD8_C314S_rev, […].
# (§2) The enzyme activity assay was performed in assay buffer [25 mM Tris-HCl (pH 8.0), 50 mM NaCl, and 0.001% (v/v) Pluronic F-68] in black half-area 96-well microplates (Greiner Bio-One). For the initial screening, 10 nM HDAC8 was preincubated with the indicated compounds at 250 μM for 2 h at 30 °C. […] The reaction was initiated by the addition of 20 μM Boc-Lys(TFA)-AMC (Bachem). After substrate conversion at 30 °C for 15 min for HDAC8 and 1 h for HDAC8 mutants and HDAC4, the reaction was stopped by adding 1.67 μM suberoylanilide trifluoromethylketone (SATFMK). The deacetylated substrate was cleaved with 0.42 mg/mL trypsin to release fluorescent 7-amino-4-methylcoumarin (AMC), which was detected with a microplate reader (PHERAstar FS […]) with fluorescence excitation at 360 nm and emission at 460 nm. IC50 values were calculated by generating dose–response curves in GraphPad Prism 6 and fitting those to a four-parameter logistic model.
# [2] = biological target: T2, HDAC8 Cys102Ser/Cys153Ser/Cys244Ser (Homo sapiens, UniProt Q9BY41, C102S/C153S/C244S); settings: read-out: IC50 [μM] @ 100 nM HDAC8: E Cys102Ser/Cys153Ser/Cys244Ser, 1 h preincubation
# T2 construct: made in house
# T2 sequence (Q9BY41 1-377 C102S/C153S/C244S): T1 sequence (Q9BY41 1-377 C102S/C153S) with C244S
# Protocol: as §1, §2
# [3] = biological target: T3, HDAC8 Cys102Ser/Cys153Ser/Cys125Ser (Homo sapiens, UniProt Q9BY41, C102S/C125S/C153S); settings: read-out: IC50 [μM] @ 100 nM HDAC8: C Cys102Ser/Cys153Ser/Cys125Ser, 1 h preincubation
# T3 construct: made in house
# T3 sequence (Q9BY41 1-377 C102S/C125S/C153S): T1 sequence (Q9BY41 1-377 C102S/C153S) with C125S
# Protocol: as §1, §2
# [4] = biological target: T4, HDAC8 Cys102Ser/Cys153Ser/Cys275Ser (Homo sapiens, UniProt Q9BY41, C102S/C153S/C275S); settings: read-out: IC50 [μM] @ 100 nM HDAC8: F Cys102Ser/Cys153Ser/Cys275Ser, 1 h preincubation
# T4 construct: made in house
# T4 sequence (Q9BY41 1-377 C102S/C153S/C275S): T1 sequence (Q9BY41 1-377 C102S/C153S) with C275S
# Protocol: as §1, §2
IC50 [1] [µM],IC50 [2] [µM],IC50 [3] [µM],IC50 [4] [µM],SMILES
23 ± 3,> 130,52 ± 7,35 ± 14,C[n+]1cccnc1Br [D2+]
14 ± 1,24 ± 3,15 ± 1,4.2 ± 0.3,C#Cc1cc[n+](C)cc1 [C6+]
> 130,> 130,> 130,107 ± 10,C#Cc1nccc[n+]1C [D6+]
97 ± 34,100 ± 12,126 ± 17,64 ± 16,C#Cc1c[n+](C)ccn1 [G6+]
68 ± 5,> 130,81 ± 4,17 ± 1,C[n+]1ccc(I)cc1 [C3+]
14 ± 1,40 ± 6,14 ± 1,16 ± 2,C[n+]1cccnc1I [D3+]
59 ± 4,> 130,65 ± 6,24 ± 3,C[n+]1ccccc1I [A3+]
60 ± 9,> 130,82 ± 4,13 ± 3,C[n+]1cccnc1Cl [D1+]
16 ± 3,26 ± 4,–,15,C[n+]1cncc(I)c1 [F3+]
29 ± 1,87 ± 7,56 ± 5,19 ± 4,C[n+]1cncc(Br)c1 [F2+]
